From patent US8530466B2, “Use of 2,4-pyrimidinediamines for the treatment of atherosclerosis” (Rigel Pharmaceuticals, Inc., priority 2008, dated 2013)

Key:
Human mast cells (CHMC) [1] = experiment: Mast cell activation induced by FcγR cross-linking: degranulation (tryptase); assay type: cell-based; conditions: anti-IgG 1 μg/ml, 60-minute incubation
Description: Human mast cells were cultured and differentiated from CD38-negative progenitor cell as described in U.S. Patent Publication No. 2005-234049, incorporated herein by reference. For example, 65 μl of various concentrations of 6-(5-fluoro-2-(3,4,5-trimethoxyphenylamino) pyrimidin-4-ylamino)-2,2-dimethyl-2H-pyrido[3,2-b][1,4]oxazin-3(4H)-one (compound 1), prepared in MT (137 mM NaCl, 2.7 mM KCl, 1.8 mM CaCl2, 1.0 mM MgCl2, 5.6 mM Glucose, 20 mM Hepes (pH 7.4), 0.1% Bovine Serum Albumin, (Sigma A4503)) containing 2% MeOH and 1% DMSO, or control buffer were added to duplicate 96-well V-bottom plates. Pelleted and resuspended (in warm MT) CHMC cells (65 μl) were added to each 96-well plate, mixed and incubated for 1 hr at 37° C. […] After a 60-minute incubation at 37° C., cells and cell debris were pelleted by centrifugation at 1000 rpm for 10 min and tryptase and leukotriene C4 levels were measured.
To measure tryptase levels, 25 μl of supernatant from each well was transferred to a fresh 96-well black bottom plate, to which 100 μl of fresh tryptase substrate solution [(Z-Ala-Lys-Arg-AMC2TFA; Enzyme Systems Products, #AMC-246)] […] After 30 min incubation at room temperature, the optical density of the plates is measured at 355 nm/460 nm on a spectrophotometric plate reader. […]

Human mast cells (CHMC) [2] = experiment: Mast cell activation induced by FcγR cross-linking: LTC4 release (ELISA); assay type: cell-based; conditions: anti-IgG 1 μg/ml
Description: (§1) Human mast cells were cultured and differentiated from CD38-negative progenitor cell as described in U.S. Patent Publication No. 2005-234049, incorporated herein by reference. […] A80-105A3) final concentration 1 μg/ml, was added to the test wells. MT (25 μl) was added to control wells. After a 60-minute incubation at 37° C., cells and cell debris were pelleted by centrifugation at 1000 rpm for 10 min and tryptase and leukotriene C4 levels were measured. Leukotriene C4 (LTC4) levels were quantified using an ELISA kit on appropriately diluted supernatant samples following the supplier's instructions (Cayman Chemical Co., Cat No. 520211). Inhibition of release and/or synthesis of lipid mediators was assessed by measuring the release of LTC4 and inhibition of release and/or synthesis of cytokines was monitored by quantifying TNFα, IL-8, GM-CSF, IL-10 and IL-13. Cytokine (TNFα, IL-8, GM-CSF, IL-10, IL-13) production was measured 6-8 hrs post-IgG crosslinking. Leukotriene and cytokine levels were quantified using the following commercial ELISA kits: LTC4 (Cayman Chemical #520211), TNFα (Biosource #KHC3011), GM-CSF (Biosource #KHC0901), IL-10 (Biosource #KHC0122), and IL-13 (Biosource #KHC0132).

Human mast cells (CHMC) [3] = experiment: Mast cell activation induced by FcγR cross-linking: cytokine production (ELISA); assay type: cell-based; conditions: 6-8 hrs post-IgG crosslinking
Description: as §1, with “measured.” for “measured. Leukotriene C4 (LTC4) levels were quantified using an ELISA kit on appropriately diluted supernatant samples following the supplier's instructions (Cayman Chemical Co., Cat No. 520211).”

Platelets in PRP = experiment: CD62P surface expression by stimulated platelets (flow cytometry); assay type: cell-based, Human; conditions: 15 min at 37° C.
Description: Human peripheral blood, from healthy volunteers who had not taken any medication for at least 7 days, was drawn into Vacutainer-ACD tubes (Acid citrate dextrose (ACD) Solution Tubes, VWR Cat. No. VT4606). Platelet-rich plasma (PRP) and platelet-poor plasma (PPP) were prepared by differential centrifugation (200 g and >2500 g, respectively, 20 min, RT). Platelets in PRP were incubated for 10 min at 37° C. with test article-DMSO solutions that had been previously diluted in MT buffer (137 mM NaCl, 2.7 mM KCl, 1.8 mM CaCl2, 1.0 mM MgCl2, 5.6 mM glucose, 20 mM Hepes, 0.1% BSA; pH 7.4). The test articles included dimethyl Sulfoxide (DMSO) (Sigma-Aldrich, Cat No. D2650), wortmannin Penicillium funiculosum (Sigma-Aldrich, Cat No. W1628), and 6-(5-fluoro-2-(3,4,5-trimethoxyphenylamino)pyrimidin-4-ylamino)-2,2-dimethyl-2H-pyrido[3,2-b][1,4]oxazin-3(4H)-one (compound 1).
Cells were stimulated with collagen (Chronolog Corp. Cat. No. 385) at 20 μg/mL, adenosine 5′-diphosphate (ADP) (Sigma-Aldrich Cat. No. A2754) at 33 μM, or phorbol 12-Myristate 13-Acetate (PMA) (Sigma-Aldrich Cat. No. P8139) at 33 ng/mL, for 15 min at 37° C., then incubated with staining antibody (anti-CD62P PE) at RT in the dark for 20 min, and fixed with paraformaldehyde (Cytofix fixation buffer) in the dark for 30 min at RT. Finally, cells were washed with PBS containing 2% fetal bovine serum and stored at 4° C. in the dark prior to flow cytometry. Measurements were performed using a FACScalibur flow cytometer (BD Biosciences, San Jose, Calif., USA). CD62P expression was expressed as geometric mean fluorescence on the vertical axis.

`COc1cc(Nc2ncc(F)c(Nc3ccc4c(n3)NC(=O)C(C)(C)O4)n2)cc(OC)c1OC` [Compound 1, 6-(5-fluoro-2-(3,4,5-trimethoxyphenylamino)pyrimidin-4-ylamino)-2,2-dimethyl-2H-pyrido[3,2-b][1,4]oxazin-3(4H)-one] gave an EC50 (Human mast cells (CHMC) [1]; Homo sapiens, Mast cell, 1 h) of 53 nM, an EC50 (Human mast cells (CHMC) [1]; listed as lot B) of 76 nM and an EC50 (Human mast cells (CHMC) [2]; Homo sapiens, Mast cell) of 36 nM. It also gave an EC50 (Human mast cells (CHMC) [2]; listed as lot B) of 47 nM, an EC50 (Human mast cells (CHMC) [3]; listed as lot B, read-out: EC50 GMCSF) of 67 nM and an EC50 (Human mast cells (CHMC) [3]; listed as lot B, read-out: EC50 IL-8) of 62 nM. It also gave an EC50 (Human mast cells (CHMC) [3]; listed as lot B, read-out: EC50 IL-10) of 148 nM, an EC50 (Human mast cells (CHMC) [3]; listed as lot B, read-out: EC50 IL-13) of 148 nM and an EC50 (Human mast cells (CHMC) [3]; listed as lot B, read-out: EC50 TNFα) of 120 nM. For the same molecule, the EC50 (Human mast cells (CHMC) [3]; Homo sapiens, Mast cell, read-out: EC50 GMCSF) was 46 nM, the EC50 (Human mast cells (CHMC) [3]; Homo sapiens, Mast cell, read-out: EC50 IL-8) was 45 nM and the EC50 (Human mast cells (CHMC) [3]; Homo sapiens, Mast cell, read-out: EC50 IL-10) was 125 nM. The EC50 (Human mast cells (CHMC) [3]; Homo sapiens, Mast cell, read-out: EC50 IL-13) was 90 nM, the “CD62P surface upregulation in platelets induced by ADP” value (Platelets in PRP; ADP 33 μM) was “did not inhibit” and the “CD62P surface upregulation in platelets induced by PMA” value (Platelets in PRP; PMA 33 ng/mL) was “did not inhibit”. The “collagen receptor mediated platelet activation (CD62P surface expression)” value (Platelets in PRP; collagen 20 μg/mL) was “inhibited”.
